Experimental data: US4077954A, “N-(p-methylphenethyl)-4a-aryl-trans-decahydroisoquinolines” (priority 1976, dated 1978)
Counter-ions that a name gives are not always drawn. Like-named read-outs stand apart in the source and are kept apart here.

How the values were obtained:
[1] = test system: mice (phenylquinone-induced writhing); experiment: phenylquinone writhing test (analgesic ED50), oral, mice; type: in vivo, female white mice; details: Mus musculus, read-out: ED50 analgesia
Procedure: A standard procedure for detecting and comparing the analgesic activity of compounds in this series for which there is good correlation with human efficacy is the standard phenylquinone writhing test modified from Siegmund, et. at., Proc. Soc. Exp. Biol. Med. 95, 729 (1957). A test compound suspended in 1% methylcellulose was given orally to fasted (17-21 hours) female white mice, 5-20 animals per double blind test. Aqueous (0.01% phenyl-p-benzoquinone) phenylquinone was injected intraperitoneally at 24 minutes later using 0.20 ml per mouse. […] The effective analgesic dose for 50% of the mice (ED 50) was calculated by the moving average method of Thompson, W. R., Bact. Rev. 11, 115-145 (1947).

[2] = Straub tail test (Straub tail ED50), intraperitoneal, mice; set-up: species or system CF1S female mice; details: mouse, in vivo; for ED50 at 25 min: ip, mice, intraperitoneal, within 25 minutes after dosing, read-out: ED50^ST (Straub tail ED50)
Procedure: Narcotic analgesics produce in mice an erection and arching of the tail (90° or more) which is referable to spinal cord stimulation. This straub tail reaction is not produced by other analgesics, including the narcotic antagonists.
The method used was modified from Shemano, I., and Wendel, H., Tox. Appl. Pharm. 6, 334-9 (1964). CF1 S female mice (18-21 g), 10-20 mice per dose were injected intraperitoneally with log scaled doses of analgesic in 1% aqueous methylcellulose. A positive Straub tail response was recorded if a tail was erected 90° or more for 5 seconds at any time within 25 minutes after dosing. A quantal Straub tail ED50 was calculated by the moving average method. (Thompson, W. R., Bact. Rev. 11, 115-145 (1947).

mice [3] = details: cited from earlier work
mice [4] = details: cited from earlier work; remark: listed apart in the source
in vivo = details: mouse
[5] = literature statement; cited from earlier work
[6] = Goodman & Gilman 1965; cited from earlier work
[7] = oral, Belgian Patent 802,557 compound

With `Cc1ccc(CCN2CC[C@]3(c4cccc(O)c4)CCCC[C@H]3C2)cc1` (relative stereo) [N-(p-methylphenethyl)-4a-(m-hydroxyphenyl)-trans-decahydroisoquinoline] the ED50 [1] was 2 mg/kg, the ED50 at 25 min [2] was 93 mg/kg and the selectivity ratio ([2]; ratio of Straub tail ED50 to analgesic ED50, read-out: ED50^ST /ED50^analgesia) was 46.
In the case of `COc1cccc([C@@]23CCCC[C@H]2CN(CCc2ccc(C)cc2)CC3)c1` (relative stereo) [N-(p-methylphenethyl)-4a-(m-methoxyphenyl)-trans-decahydroisoquinoline], the ED50 [1] is reported as 5.8 mg/kg and the ED50 at 25 min [2] is reported as 93 mg/kg.
In the case of `Oc1cccc([C@@]23CCCC[C@H]2CN(CCc2ccccc2)CC3)c1` (relative stereo) [N-phenethyl-4a-(m-hydroxyphenyl)-trans-decahydroisoquinoline], the ED50^analgesia (mice [3]; [7]) is given as 6.6 mg/kg, the ED50^ST (mice [4]; [7]) is given as 10 mg/kg and the selectivity ratio (in vivo; po) is given as about 1.
In the case of `Cc1ccc(CCN2CC[C@@]3(c4cccc(O)c4)CC(C)CC[C@@H]3C2)cc1` (stereo partly drawn) [N-(p-methylphenethyl)-4a-(m-hydroxyphenyl)-6-methyl-trans-decahydroisoquinoline], the ED50 [1] is reported as 2 mg/kg and the ED50 at 25 min [2] is reported as 135 mg/kg.
For `CN1CCC2(c3ccccc3)CCCCC2C1` (stereo not shown) [N-methyl-4a-phenyl-decahydroisoquinoline], the “analgesic activity” value [5] is listed as “low analgesic activity”.
For `COc1cccc([C@@]23CCN(CCc4ccc(C)cc4)C[C@H]2CCC(C)C3)c1` (stereo partly drawn) [N-p-methylphenethyl-4a-(m-methoxyphenyl)-6-methyl-trans-decahydroisoquinoline], the ED50 [1] was 8.7 mg/kg and the ED50 at 25 min [2] was over 135 mg/kg.
For `CC1C2Cc3ccc(O)cc3C1(C)CCN2CCc1ccccc1` (stereo not shown) [Phenzaocine hydrobromide], the “analgesic ED50” value (mice [3]; mice, Shemano and Wendel 1964) is given as 0.2 mg/kg, the “Straub tail ED50” value (mice [4]; mice, Shemano and Wendel 1964) is given as 0.5 mg/kg and the selectivity ratio (in vivo) is given as about 2.5.
For `CN1CC[C@]23c4c5ccc(O)c4O[C@H]2[C@@H](O)C=C[C@H]3[C@H]1C5` [morphine], the ED50^analgesia (mice [3]; morphine, background section) is given as 5.6 mg/kg.
In the case of `CC1C2Cc3ccc(O)cc3C1(C)CCN2CCc1ccccc1` (stereo not shown) [phenazocine, 2'-hydroxy-5,9-dimethyl-2-phenethyl-6,7-benzomorphan], the “analgesic activity” value [5] is listed as “potent analgesic” and the “morphine-like actions” value [6] is listed as “produces the entire range of morphine-like actions, including respiratory depression, constipation, and physical dependence”.
